{
  "source": "patent US20220332758A1",
  "about": "“PEPTIDE-BASED COMPOSITIONS AND METHODS FOR TREATING ALZHEIMER'S DISEASE” (Board of Regents, The Universityof Texas System, priority 2019, published 2022)",
  "key": {"[1]": {"biological_target": "T1, α face pockets of the 20S core proteasome (Homo sapiens, UniProt P25787+P60900)", "T1 construct": "purified from erythrocytes; purchased Boston Biochem, Inc. or Enzo Life Sciences, Inc; host or cells: human erythrocytes", "experiment": "Competition of TAT peptides with Rpt C-terminal tail peptides for α face pockets (ChT-L activity of 20S)", "format": "biochemical", "from_the_text": "As mentioned herein, the binding pockets on the α face accept “anchors” from natural protein ligands of the 20S core. […] The 10-residue Rpt-derived C-terminal “tail” peptides (“Rpt peptides”) can be used as competitors with the Rpt subunits or with small allosteric ligands. Importantly, the Rpt peptides interject between the subunits with their C-termini, whereas TAT peptides, according to the modeling, use their N-termini for this purpose. To test the specificity of interactions between TAT compounds and the α face, competition experiments were performed. The 20S core was challenged with selected TAT compounds after treatment with Rpt peptides. Peptides of Rpt2 ([…]; SEQ ID NO: 10), Rpt3 ([…]; SEQ ID NO: 11), Rpt5 ([…]; SEQ ID NO: 12) and Rpt6 ([…]; SEQ ID NO: 13) subunits were selected, docking in α3/α4, α1/α2, α5/α6 and α2/α3 pockets, respectively. Tails of Rpt2, 3, and 5 display the canonical HbYX motif, whereas the LeuTrpLys C-terminus of Rpt6 may be considered “pseudo-HbYX”, with a bulky Trp replacing Tyr. Results of the competition experiments are presented as radar plots in FIG. 15. […] This pocket also emerged as the major binding site for (1) and (8). However, these compounds likely weakly competed with the Rpt2 tail for binding to the α3/α4 pocket as well. The α3/α4 pocket seemed to be favored by (6). […] These complex patterns point at the importance of allosteric effects between the α face ligands, the gate and the catalytic chamber.\nDetermination of Proteasome Activity. Human housekeeping core (20S) proteasome purified from erythrocytes was purchased from Boston Biochem, Inc. (Cambridge, Mass.) or from Enzo Life Sciences, Inc. (Farmingdale, N.Y.). Multiple batches of the proteasomes were used and performed reproducibly. The stock proteasome was diluted to 0.2 mg/mL working solution in “dilution buffer” (50 mM Tris/HCl, pH 8, 20% glycerol). The following model peptide substrates, releasing fluorescent 7-amino-4-methylcoumarin (AMC) reporter group after cleavage, were used: succinyl-LeuLeuValTyr-AMC (SEQ ID NO: 14) (for the ChT-L peptidase; SucLLVY-AMC; Bachem Bioscience Inc., Philadelphia, Pa.), butoxycarbonyl-LeuArgArg-AMC (T-L; Bachem Bioscience Inc., Philadelphia, Pa.) and carbobenzoxy-LeuLeuGlu-AMC (PGPH; Enzo Life Sciences Inc., Farmingdale, N.Y.). The substrates were used at concentration of 50 μM (ChT-L) or 100 μM (T-L, PGPH). Free AMC (Sigma-Aldrich, St. Louis, Mo.) was used as the standard. The C-terminal peptides derived from Rpt2, Rpt3, Rpt5 and Rpt6 were synthesized (standard solid-phase peptide chemistry) and purified to at least 98% purity by GenScript (Piscataway, N.J.). The TAT peptides, Rpt peptides (except Rpt6) and the peptide substrates were dissolved in anhydrous dimethylsulfoxide (DMSO; Sigma-Aldrich, St. Louis, Mo.) and such stock solutions were stored at −20° C. The total concentration of DMSO in final reaction mixtures never exceeded 3% (vol/vol). The Trp (tryptophan)-containing Rpt6 peptide was dissolved in ultrapure water and stored at −20° C., protected from light. The reaction was carried out in 96-well plates, in 100 μL of reaction mixture that consisted of 45 mM Tris/HCl, pH 8, 100 mM KCl, 1 mM EDTA (reaction buffer) and a fluorogenic peptide substrate, to which 200 ng (nearly […]) of proteasome were added. The addition of KCl/EDTA (ethylenediaminetetraacetic acid) to reaction buffer assured latency of the core proteasome. The proteasome was preincubated with a substrate for 10 min at room temperature, then 1 μL of DMSO or a desired concentration of a TAT peptide in 1 μL of DMSO were added. After mixing, the plate was transferred to a Fluoroskan Ascent plate reader (Thermo Fisher Scientific Inc., Waltham, Mass.) for 1 h (37° C.), with fluorescence readouts once per minute. To test the competition with Rpt derived peptides, the Rpt peptide (1 μM) was added before the TAT peptide to the reaction mixture. […]"}, "[2]": {"biological_target": "T2, proteasome ChT-L activity in SK-N-SH (ATCC HTB-11) cells (Homo sapiens, UniProt P25787+P60900)", "T2 construct": "host or cells: SK-N-SH human neuroblastoma cells", "experiment": "ChT-L proteasome activity in lysates of SK-N-SH cells treated with TAT peptides", "format": "cell-based", "settings": "1 μM, 24 h", "procedure": "(§1) Cell Culture. Human SK-N-SH neuroblastoma cell line (ATCC® HTB-11™ American Type Culture Collection; Manassas, Va.) were cultured according to ATCC specifications (EMEM, 10% heat-inactivated FBS) The cells at passage 2-4 were treated with 1 μM TAT peptides or the DMSO vehicle diluted with the medium 1: 1000, for 24 h. The content of live cells was determined by the Trypan Blue-exclusion assay. The cells were harvested, washed twice in PBS, resuspended in dilution buffer (as described herein) and stored in −80° C. To prepare lysates, the thawed preparations were vortexed with glass beads and centrifuged for 5 min 5,000×g (4° C.). The supernatant was centrifuged for 20 min 14,000×g (4° C.). The resulting supernatant—“crude lysate” was diluted to 1 mg/mL of total protein with dilution buffer. 1 μg of lysate per assay (reaction buffer: 50 mM Tris/HCl pH 8, 0.1 mM MgCl2, 0.2 mM ATP, 0.1 mM dithiothreitol, 50 μM Suc-LLVY-AMC (SEQ ID NO: 14)) was used for determination of ChT-L activity in a 96-well format, as above."}, "[3]": {"biological_target": "20S proteasome (Homo sapiens, UniProt P25787+P60900)", "settings": "cited from earlier work"}, "[4]": {"biological_target": "proteasome in SK-N-SH cell lysates (Homo sapiens, UniProt P28074)", "experiment": "ChT-L activity of SK-N-SH cell lysates exposed to Bortezomib", "format": "biochemical", "settings": "1 μM", "procedure": "as §1"}, "[5]": {"biological_target": "T3, latent human 20S proteasome (Homo sapiens, UniProt P25787+P60900)", "T3 construct": "purified from erythrocytes; purchased Boston Biochem, Inc. or Enzo Life Sciences, Inc; host or cells: human erythrocytes", "experiment": "Chymotrypsin-like (ChT-L) activity of purified latent human 20S proteasome, Suc-LLVY-AMC substrate", "format": "biochemical", "description": "Determination of Proteasome Activity. Human housekeeping core (20S) proteasome purified from erythrocytes was purchased from Boston Biochem, Inc. (Cambridge, Mass.) or from Enzo Life Sciences, Inc. (Farmingdale, N.Y.). […] The stock proteasome was diluted to 0.2 mg/mL working solution in “dilution buffer” (50 mM Tris/HCl, pH 8, 20% glycerol). The following model peptide substrates, releasing fluorescent 7-amino-4-methylcoumarin (AMC) reporter group after cleavage, were used: succinyl-LeuLeuValTyr-AMC (SEQ ID NO: 14) (for the ChT-L peptidase; SucLLVY-AMC; Bachem Bioscience Inc., Philadelphia, Pa.), butoxycarbonyl-LeuArgArg-AMC (T-L; Bachem Bioscience Inc., Philadelphia, Pa.) and carbobenzoxy-LeuLeuGlu-AMC (PGPH; Enzo Life Sciences Inc., Farmingdale, N.Y.). The substrates were used at concentration of 50 μM (ChT-L) or 100 μM (T-L, PGPH). Free AMC (Sigma-Aldrich, St. Louis, Mo.) was used as the standard. […] The TAT peptides, Rpt peptides (except Rpt6) and the peptide substrates were dissolved in anhydrous dimethylsulfoxide (DMSO; Sigma-Aldrich, St. Louis, Mo.) and such stock solutions were stored at −20° C. The total concentration of DMSO in final reaction mixtures never exceeded 3% (vol/vol). The Trp (tryptophan)-containing Rpt6 peptide was dissolved in ultrapure water and stored at −20° C., protected from light. The reaction was carried out in 96-well plates, in 100 μL of reaction mixture that consisted of 45 mM Tris/HCl, pH 8, 100 mM KCl, 1 mM EDTA (reaction buffer) and a fluorogenic peptide substrate, to which 200 ng (nearly […]) of proteasome were added. […] The proteasome was preincubated with a substrate for 10 min at room temperature, then 1 μL of DMSO or a desired concentration of a TAT peptide in 1 μL of DMSO were added. After mixing, the plate was transferred to a Fluoroskan Ascent plate reader (Thermo Fisher Scientific Inc., Waltham, Mass.) for 1 h (37° C.), with fluorescence readouts once per minute. To test the competition with Rpt derived peptides, the Rpt peptide (1 μM) was added before the TAT peptide to the reaction mixture. The reaction rates were calculated from a linear segment of kinetic curves constructed from measurements in 1-min intervals. Reaction rates were calculated using a linear fit performed with the Slope Analyser and Enzyme Kinetics applications launched within Origin Pro 2019 (OriginLab Corporation, Northampton, Mass.). […] The data are presented as mean±SD from at least three independent experiments.\nStatistical Analysis. Experiments were performed at least in three independent replicates. The results are presented as a mean±SD. A two-tailed t-test was applied to compare the means. The comparisons were allowing for unequal variances with a Welch correction. Abundance of proteasome conformers was compared with the chi squared test and two-sample proportion test. A significance level was set at 0.05. Statistical analysis was performed using statistical procedures offered by OriginPro 2019 (OriginLabs, Northampton, Mass.). Reaction rates were calculated from a smoothed linear segment of kinetic traces using OriginPro 2019. Response curves (activity vs. compound concentration) were fitted with a nonlinear fitting application of OriginPro 2019. The AC50 and maximum activation fold was calculated based on the equations implemented to fit the response curves."}},
  "data": [
    {"compound": "N=C(N)NCCC[C@H](NC(=O)CN)C(=O)N[C@@H](CCCCN)C(=O)N[C@@H](CCCCN)C(=O)N[C@@H](CCCNC(=N)N)C(=O)N[C@@H](CCCNC(=N)N)C(=O)N[C@@H](CCC(N)=O)C(=O)N[C@@H](CCCNC(=N)N)C(=O)N[C@@H](CCCNC(=N)N)C(=O)N[C@@H](CCCNC(=N)N)C(=O)N1CCC[C@H]1C(=O)N[C@@H](CO)C(=O)O", "note": "[(1), reference compound]", "values": [
      {"measurement": "enhanced activation with Rpt tails", "setting": "[1]; 1 μM Rpt peptide", "value": "enhanced activation in the presence of one of Rpt tails, namely Rpt5 or Rpt6"},
      {"measurement": "competition with Rpt tail peptides", "setting": "[1]; 1 μM Rpt peptide added before the TAT peptide", "value": "weakly negative score for the Rpt2 tail to the presumed major competitor Rpt3"},
      {"measurement": "proteasome ChT-L activity in lysates from treated cells vs control lysates", "setting": "[2]", "value": "lack of significant activation"},
      {"measurement": "degradation by 20S proteasome", "setting": "[3]", "value": "digested by 20S proteasome"}
    ]},
    {"compound": "CC(C)C[C@H](NC(=O)[C@H](Cc1ccccc1)NC(=O)c1cnccn1)B(O)O", "note": "[Bortezomib]", "values": [
      {"measurement": "effect on ChT-L activity of cell lysates (in words)", "setting": "[4]", "value": "almost complete abrogation of ChT-L activity"}
    ]},
    {"compound": "CC(C)(NC(=O)C(CCC(N)=O)NC(=O)C(CCCNC(=N)N)NC(=O)C(CCCNC(=N)N)NC(=O)C(CCCCN)NC(=O)C(CCCCN)NC(=O)C(CCCNC(=N)N)NC(=O)CN)C(=O)NC(=O)C(C)(C)C(=O)NC(CCC(N)=O)C(=O)NC(CCCNC(=N)N)C(=O)NC(CCCNC(=N)N)C(=O)NC(CCCCN)C(=O)NC(CCCCN)C(=O)NC(CCCNC(=N)N)C(=O)NCC(=O)O", "note": "(stereo not shown) [Tat5-8, 9 Aib, GRKKRRQ-AibG-QRRKKRG]", "values": [
      {"measurement": "AC50", "setting": "[5]; 20S proteasome AC50, Table 1, ChT-L activity, Suc-LLVY-MCA, purified human housekeeping 20S", "value": 183, "unit": "nM"},
      {"measurement": "activation of ChT-L activity of 20S proteasome (in words)", "setting": "[5]; in vitro, latent human 20S", "value": "surprisingly excellent activator slightly less potent than Tat1-8,9Aib"}
    ]}
  ]
}
